We go through three compounds from publication PMC5493200 (ACS infectious diseases, 2016).

Each structure is given as a SMILES string. In brackets after ≈: the same amount, converted by molar mass. Read-outs that look alike come from different tables or passages of the source. Bounds are passed on as bounds.

Series [1] has as its system M. tuberculosis H37Rv. As to the kind of experiment: microbe, parasite or virus in culture. The series is classed as cell-based, Mycobacterium tuberculosis. The conditions noted are these: for MIC (H37Rv): Table 5; for H37Rv MIC: Tables 1-4 and text.
Series [2] concerns M. tuberculosis H37Rv Rv1258c knockout (KO). Kind of series: microbe, parasite or virus in culture. Format: cell-based. To be noted: for Rv1258c KO MIC: Tables 1-4 and text, 7 days, 7H9 broth.
The target in series [3] is Purified 70S M. smegmatis bacterial ribosomes (Mycolicibacterium smegmatis, UniProt A0QSG6). As to the kind of experiment: Ribosomal translation inhibition. Format: biochemical. To be noted: inhibits luciferase activity by 50%.
Purified 70S M. smegmatis bacterial ribosomes, sequence (A0QSG6 whole entry): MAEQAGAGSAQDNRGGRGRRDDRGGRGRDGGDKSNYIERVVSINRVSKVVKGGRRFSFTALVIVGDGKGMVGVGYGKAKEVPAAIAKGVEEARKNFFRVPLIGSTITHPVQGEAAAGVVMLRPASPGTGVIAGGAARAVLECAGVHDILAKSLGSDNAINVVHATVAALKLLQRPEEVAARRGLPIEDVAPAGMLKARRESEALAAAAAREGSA
Series [4] concerns M. bovis BCG. The series is classed as cell-based. To be noted: average of 2–3 replicates, standard deviation in parenthesis.
The nature of series [5]: Microsomal stability, human. Format: in vitro ADME. The conditions noted are these: human liver microsomes. In general terms: Liver microsomes are vesicles of endoplasmic reticulum, rich in cytochrome P450 enzymes.
Series [6] can be described thus: Microsomal stability, mouse. The series is classed as in vitro ADME. To be noted: mouse liver microsomes.
A short description of series [7]: Protein binding, human. The series is classed as in vitro ADME.
The nature of series [8]: Protein binding, mouse. The series is classed as in vitro ADME.
The test system of series [9] is HepG2 cells. Kind of series: Mammalian cytotoxicity. The series is classed as cell-based.
For series [10], the system named is M. tuberculosis Erdman. Kind of series: Mouse model of acute tuberculosis infection. The series is classed as in vivo. To be noted: 200 mg/kg BID, 9 days, subcutaneous, vs control.
The conditions of series [11]: ref [18]; cited from earlier work.
Series [12] relates to Rv1258c efflux pump. To be noted: H37Rv MIC / Rv1258c KO MIC.
For series [13] the following is noted: human liver microsomes; starred compounds; ref [4]; cited from earlier work.
For series [14] the following is noted: mouse liver microsomes; starred compounds; ref [4]; cited from earlier work.

`Br.Br.Br.CN[C@@H]1[C@H](O)[C@H](NC)[C@H]2O[C@]3(O)[C@H](O[C@@H]2[C@H]1O)O[C@H](C)C[C@H]3NC(=O)Cc1cc(Cl)c(OC)cn1` [Compound 48, 3′-Dihydro-3′-deoxy-3′(R)-(4-chloro-5-methoxypyridin-2-yl)acetylamino spectinomycin trihydrobromide]: in series [1], the “MIC (H37Rv)” value came out at 3.1 µg/mL and the “H37Rv MIC” value amounted to 3.1 µg/mL. The “Rv1258c KO MIC” value in series [2] turned out to be 3.1 µg/mL. The “Ribosome IC50” value in series [3] is 0.42 µg/mL. The “Post Antibiotic Effect” value in [4] is on record as 72 (10) h. Further, the “Microsomal stability t1/2 human” value in series [5] is 6.3 h. In addition, in series [6], the “Microsomal stability t1/2 mouse” value is 5.5 h. In addition, the Protein binding human in series [7] is on record as 61.6%. Further, the Protein binding mouse in series [8] came out at 72.9%. Besides, in series [9], the “Cytotoxicity (HepG2)” value was more than 400 µg/mL. Also, the “Reduction of bacterial load in lungs” value in [10] (second new trial (Figure 3C)) was determined as 1.6 log. Also, in series [11], the “Phase II conjugative metabolism” value is reported as “subject to metabolism”.

Turning to `Br.Br.Br.CN[C@@H]1[C@H](O)[C@H](NC)[C@H]2O[C@]3(O)[C@H](O[C@@H]2[C@H]1O)O[C@H](C)C[C@H]3NC(=O)Cc1cc(Cl)c(C)cn1` [Compound 47, 3′-Dihydro-3′-deoxy-3′(R)-(4-chloro-5-methylpyridin-2-yl)acetylamino spectinomycin trihydrobromide], in series [1], the “MIC (H37Rv)” value was found to be 0.8 µg/mL and the “H37Rv MIC” value was 0.8 µg/mL. Further, the “Rv1258c KO MIC” value in series [2] turned out to be 0.8 µg/mL. Also, in series [3], the “Ribosome IC50” value turned out to be 0.23 µg/mL. Moreover, the “Post Antibiotic Effect” value in series [4] is 102 (15) h. Also, in series [5], the “Microsomal stability t1/2 human” value was more than 50 h. Also, the “Microsomal stability t1/2 mouse” value in [6] is listed as more than 50 h. This compound came in with a Protein binding human in series [7] of 43.9%. The compound also had a Protein binding mouse in series [8] of 42.7%. Moreover, the “Cytotoxicity (HepG2)” value in [9] was more than 400 µg/mL. In addition, the “Reduction of bacterial load in lungs” value in series [10] (first new trial (Figure 3B)) is given as “more than 2 logs”. The “Phase II conjugative metabolism” value in [11] is listed as “subject to some phase II conjugative metabolism”.

For the compound `CN[C@@H]1[C@H](O)[C@H](NC)[C@H]2O[C@@]3(O)C(=O)C[C@@H](C)O[C@H]3O[C@@H]2[C@H]1O` [SPC, Spectinomycin, reference compound], the MIC in series [1] (Mycobacterium tuberculosis, H37RV, 168 h, read-out: H37Rv MIC) worked out at 100 µg/mL (≈ 301 µM); in series [2] (Mycobacterium tuberculosis, H37RV, 168 h, read-out: Rv1258c KO MIC) it was 6.3 µg/mL (≈ 19 µM). In series [12], the “Efflux Ratio” value turned out to be 16. The “Microsomal stability t1/2 human” value in series [13] is on record as 2.5 h. The “Microsomal stability t1/2 mouse” value in series [14] was more than 10 h.
